Test results reported in patent US20250011368A1, “DLL3 TARGETING PEPTIDES AND CONSTRUCTS THEREOF” (MARIANA ONCOLOGY INC., priority 2023, published 2025).
Numbered stars: 1 amine (or outer) side, 2 acyl side, 3 side chain; on linkers, the order of the positions; unused ones are H or OH. Bridge positions count the residues as written; N and C are the ends. Square brackets hold non-standard residues; d marks the D form. Peptide text beside a SMILES is read from it. * marks the point of attachment. Ala(piperidin-4-yl) = O=C([C@H](CC1CCN([*:3])CC1)N[*:1])[*:2]; DOTA = O=C(O)CN1CCN(CC(=O)O)CCN(CC(=O)*)CCN(CC(=O)O)CC1; Phe(4-CF3) = N[C@@H](Cc1ccc(C(F)(F)F)cc1)C(=O)O; Ala(morpholin-4-yl) = N[C@@H](CN1CCOCC1)C(=O)O; Trp(5-F) = N[C@@H](Cc1c[nH]c2ccc(F)cc12)C(=O)O; Trp(7-aza) = N[C@@H](Cc1c[nH]c2ncccc12)C(=O)O; Pro(trans-4-F) = O=C(O)[C@@H]1C[C@@H](F)CN1; 2Nal = N[C@@H](Cc1ccc2ccccc2c1)C(=O)O; Nva(3-Et) = CCC(CC)[C@H](N)C(=O)O; 3Pal = N[C@@H](Cc1cccnc1)C(=O)O; 4Pal = N[C@@H](Cc1ccncc1)C(=O)O

Tests used:
[1] = biological target: T1, human DLL3 (Homo sapiens, UniProt Q9NYJ7); test: Affinity determination by Surface Plasmon Resonance (SPR); assay type: binding; conditions: 25° C., biotinylated human DLL3 immobilized on streptavidin sensor chip, 1:1 binding model; read-out: SPR KD
T1 sequence (Q9NYJ7 27-618): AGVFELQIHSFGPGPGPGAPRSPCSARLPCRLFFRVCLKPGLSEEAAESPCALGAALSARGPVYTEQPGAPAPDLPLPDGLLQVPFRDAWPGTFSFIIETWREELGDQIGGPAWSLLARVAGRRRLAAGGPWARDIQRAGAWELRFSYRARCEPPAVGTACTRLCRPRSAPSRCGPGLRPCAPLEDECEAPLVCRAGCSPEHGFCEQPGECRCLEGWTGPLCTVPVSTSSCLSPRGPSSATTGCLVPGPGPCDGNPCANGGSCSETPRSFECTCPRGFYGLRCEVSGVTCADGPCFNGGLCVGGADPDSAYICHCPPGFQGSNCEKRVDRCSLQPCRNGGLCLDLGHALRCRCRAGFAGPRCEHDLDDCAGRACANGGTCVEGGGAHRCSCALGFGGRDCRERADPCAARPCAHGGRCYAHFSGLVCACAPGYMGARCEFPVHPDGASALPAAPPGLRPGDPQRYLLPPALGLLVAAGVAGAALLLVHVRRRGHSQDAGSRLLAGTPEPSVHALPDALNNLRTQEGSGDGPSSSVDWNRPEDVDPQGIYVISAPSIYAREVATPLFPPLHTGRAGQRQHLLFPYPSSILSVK
How it was run: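 Biotinylated human DLL3 was captured on a streptavidin chip with a reference surface. Compounds at several concentrations were injected at 100 μL/minute in phosphate buffer (137 mM NaCl, 2.7 mM KCl, 0.05% P20, 2% DMSO). Affinity and kinetics came from 1:1 model fits of the sensorgrams.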

[2] = test system: CT26.DLL3 cells; test: Cell binding (total uptake) of [177Lu]Lu-test peptide, CT26.DLL3 cells; assay type: cell-based; conditions: 1 hour at 37° C.
Description: (§1) [^177Lu]LuCl3 was received from venders in HCl solution. For every mCi of [^177Lu]LuCl3 added to the reaction vial (1.5 mL Eppendorf vial), ammonium acetate buffer (0.2 M, pH 4.9, 100 μL, containing 1% w/v ascorbic acid and 6% v/v ethanol) and peptide conjugate (1 nmol). A peptide conjugate of the present disclosure is also referred to herein as a “chelator-peptide”. The pH of the solution was determined to be approximately 5 by using pH strips. The reaction vial was incubated at 80° C., 700 RPM for 17-20 minutes. A sample from the reaction was analyzed by RP-HPLC using an Agilent Infinity II 1260 HPLC to determine reaction completion and radiochemical purity of [^177Lu]Lu-chelator-peptide. HPLC conditions: Waters XBridge BEH C18 Column, 130 Å, 3.5 um, 4.6 mm×250 mm; mobile phase: Solvent A=water (with 0.1% formic acid), solvent B=acetonitrile (with 0.1% formic acid). Gradients: 25-45% B in 10 minutes, 45-65% B in 12 minutes, 65-90% in 6 minutes at a flow rate of 0.5 mL/minute. Required amounts of the product was formulated in 1% PBSA for cell studies.
(§2) The study was conducted using SHP-77, CT26.WT, and CT26.DLL3 cells (Table 7) Adherent cell studies: The cells were cultured in appropriate culture media (20 mL) in tissue culture treated T150 flasks at 37° C. and 5% CO2. Adherent cells were detached (60-70% confluent) using 5 mL Versene at 37° C. for 3 minutes. After confirming the viability using countess and count of detached cells using Trypan blue, the cells were centrifuged at 4° C. for 5 minutes (1,000 rpm). The cell pellet obtained was washed once with PBS and resuspended in 1% PBSA to obtain the desired cell concentration (5-25 million cells/mL).
(§3) Cell numbers used for the assay were in the range of 5 million cells/condition −25 million cells/condition.
(§4) Total uptake: Cells were incubated with 300 μL (0.8 μCi) of the incubation buffer (containing radiolabeled peptide [^177Lu] Lu-test peptide) for 1 hour at 37° C. (Table 8). Post incubation, the cells were pelleted and washed 2 times using cold PBS+1% BSA. The supernatant and washes were combined and counted together as “unbound fraction” in a gamma counter. The cells were then resuspended in 300 μL of 1% PBS+1% BSA and counted in the gamma counter as “bound fraction”.
(§5) In these Tables, “A” represents %≤25; “B” represents 25<%≤50; “C” represents %>50.

[3] = test system: CT26.DLL3 cells; test: Internalization (out of bound fraction) of [177Lu]Lu-test peptide, CT26.DLL3 cells; assay type: cell-based; conditions: 1 hour at 37° C., glycine pH 2.5 wash
Description: as §1, §2, §3, §4
Internalization: The resuspended cells in 300 μl of 1% PBSA and counted in the gamma counter as “bound fraction” were collected in 1.5 mL Eppendorf tube and pelleted. The pelleted cells were incubated with 300 μl of 50 mM Glycine pH=2.5 for 3 minutes and then pelleted discarding the supernatant. This process was repeated one more time. The pelleted cells were washed with 300 μl of cold 1% PBSA and then resuspended in 300 μl 0.3M NaOH. This was counted in the gamma counter as “internalized fraction”.
as §5

[4] = test system: SHP-77 tumors; test: Ex vivo biodistribution of radiolabeled peptides in nude mice bearing SHP-77 tumors; conditions: [177Lu]Lu labelling, nude mice bearing SHP-77 tumors (n = 3), 24 hours post-injection
Description: Mice were intravenously injected (via the lateral tail vein) with a bolus dose of the radiolabeled peptides for ex vivo biodistribution studies when tumor volumes were in range of 200-400 mm^3 for xenograft mice and when age of the mice was 5-7 weeks for tumor naïve mice studies. To assess the amount of radionuclide injected into individual mice the syringe was assayed in a dose calibrator before and after injection for [^177Lu]Lu-peptide.
Mice were euthanized at pre-determined time points and selected tissues were resected and collected into pre-weighed tubes. The tubes were then reweighed post resection, the difference giving the weight of each tissue. Radioactivity in each tissue was measured using a gamma counter. Counts were decay corrected to the time of injection and percentage of injected activity per gram (% IA/g) was calculated for each tissue based on the injected activity into each individual mouse. Injected activity was converted to counts based on the sensitivity of the gamma counter. The counts in tissue were then converted to the percentage of injected activity and this was divided by the mass of tissue to give % IA/g.

[5] = biological target: T2, DLL3 on SHP-77 cells (human, UniProt Q9NYJ7 27-618); test: 177Lu-peptide bound to SHP-77 cells, gamma counting; letter grade, key in paragraph 629
T2 construct: SHP-77 cells are human-derived, non-engineered SCLC cells
T2 sequence: T1 sequence (Q9NYJ7 27-618)
Description: as §2
(§6) Total uptake: Cells were incubated with 300 μL (0.8 μCi) of the incubation buffer (containing radiolabeled peptide [¹⁷⁷Lu] Lu-test peptide) for 1 hour at 37° C. (Table 8). Post incubation, the cells were pelleted and washed 2 times using cold PBS+1% BSA. The supernatant and washes were combined and counted together as “unbound fraction” in a gamma counter. The cells were then resuspended in 300 μL of 1% PBS+1% BSA and counted in the gamma counter as “bound fraction”.

[6] = biological target: T3, DLL3 on CT26.DLL3 cells (Homo sapiens (Human), UniProt Q9NYJ7 27-618); test: 177Lu-peptide bound to CT26.DLL3 cells, gamma counting; letter grade, key in paragraph 629
T3 construct: CT26.DLL3 are engineered cells to express DLL3
T3 sequence: T1 sequence (Q9NYJ7 27-618)
Description: as §2, §6

CC[C@H](C)[C@H](NC(=O)[C@@H](NC(=O)[C@H](Cc1c[nH]c2ccccc12)NC(C)=O)[C@@H](C)O)C(=O)N[C@H]1CSSC[C@@H](C(=O)N[C@@H](Cc2c[nH]c3ccccc23)C(=O)N2CCC[C@H]2C(=O)N[C@H](CCCCNC(=O)CN2CCN(CC(=O)O)CCN(CC(=O)O)CCN(CC(=O)O)CC2)C(N)=O)NC(=O)[C@H](CC(=O)O)NC(=O)[C@H](Cc2cnc[nH]2)NC(=O)[C@H](Cc2ccc3ccccc3c2)NC(=O)[C@H](Cc2ccncc2)NC(=O)[C@H](CC(N)=O)NC1=O [compound 266, Ac-W-T-I-C(3)-N-(4Pya)-(2Nal)-H-D-C(3)-W-P-[D-Lys(DOTA)]-NH2] (Ac-WTICN[4Pal][2Nal]HDCWP[dK](DOTA)-NH2; disulfide 4-10)
Kd [1]: < 1 nM | % Binding [2]: A (%≤25) | % Internalization (out of bound fraction) [3]: A (%≤25) | kidney uptake (% IA/g) [4]: C (0 < % IA/g ≤ 10 in kidney) | tumor uptake (% IA/g) [4]: A (0 < % IA/g ≤ 5 in tumor)

CC[C@H](C)[C@H](NC(=O)[C@@H](NC(=O)[C@H](Cc1c[nH]c2ccccc12)NC(C)=O)[C@@H](C)O)C(=O)N[C@H]1CSSC[C@@H](C(=O)N[C@@H](Cc2c[nH]c3ccccc23)C(=O)N2CCC[C@H]2C(=O)N[C@H](CCCCNC(=O)CN2CCN(CC(=O)O)CCN(CC(=O)O)CCN(CC(=O)O)CC2)C(N)=O)NC(=O)[C@H](CC(=O)O)NC(=O)[C@H](Cc2cnc[nH]2)NC(=O)[C@H](Cc2ccc3ccccc3c2)NC(=O)[C@H](CC2CCNCC2)NC(=O)[C@H](CC(N)=O)NC1=O [compound 267, Ac-W-T-I-C(3)-N-[3-(4-piperidinyl)-Ala]-(2Nal)-H-D-C(3)-W-P-[D-Lys(DOTA)]-NH2] (Ac-WTICN[Ala(piperidin-4-yl)][2Nal]HDCWP[dK](DOTA)-NH2; disulfide 4-10)
Kd [1]: < 1 nM | % Binding [2]: A (%≤25) | % Internalization (out of bound fraction) [3]: B (25<%≤50) | kidney uptake (% IA/g) [4]: C (0 < % IA/g ≤ 10 in kidney) | tumor uptake (% IA/g) [4]: A (0 < % IA/g ≤ 5 in tumor)

Ac-(5Fluoro-W)-T-(CHA)-C(3)-N-N-(2Nal)-H-D-C(3)-(7Aza-W)-(trans4Fluoro-P)-[D-Lys(DOTA)]-NH2 [compound 245]
Kd [1]: < 1 nM | % Binding [2]: A (%≤25) | % Internalization (out of bound fraction) [3]: B (25<%≤50) | kidney uptake (% IA/g) [4]: D (% IA/g > 10 in kidney) | tumor uptake (% IA/g) [4]: A (0 < % IA/g ≤ 5 in tumor)

Ac-WTICNN[2Nal]HDCWPK(DOTA)-NH2 (disulfide 4-10; also: 177Lu chelated in DOTA, also called [177Lu]Lu-test peptide) [[177Lu]Lu-labelled Cpd No. 166]
% Binding [5]: ≤ 25%

Ac-WTICN[Ala(piperidin-4-yl)][2Nal]HDCWP[dK](DOTA)-NH2 (disulfide 4-10; also: 177Lu in the DOTA chelator, also called [177Lu]Lu-test peptide) [[177Lu]Lu-labelled Cpd No. 267]
% Binding [6]: ≤ 25%

Ac-WTIC[Ala(morpholin-4-yl)]N[2Nal]HDCWP[dK](DOTA)-NH2 (disulfide 4-10; also: 177Lu in the DOTA chelator, also called [177Lu]Lu-test peptide) [[177Lu]Lu-labelled Cpd No. 261]
% Binding [6]: ≤ 25%

Ac-WTIC[3Pal]N[2Nal]HDCWP[dK](DOTA)-NH2 (disulfide 4-10; also: 177Lu in the DOTA chelator, also called [177Lu]Lu-test peptide) [[177Lu]Lu-labelled Cpd No. 263]
% Binding [6]: ≤ 25%

Ac-WTIC[4Pal]N[2Nal]HDCWP[dK](DOTA)-NH2 (disulfide 4-10; also: 177Lu in the DOTA chelator, also called [177Lu]Lu-test peptide) [[177Lu]Lu-labelled Cpd No. 264]
% Binding [6]: ≤ 25%

Ac-WTICNN[2Nal]HDCWP[dK](DOTA)-NH2 (disulfide 4-10; also: 177Lu in the DOTA chelator, also called [177Lu]Lu-test peptide) [[177Lu]Lu-labelled Cpd No. 75]
% Binding [5]: ≤ 25%

Ac-WTICNN[2Nal]KDCWP[dK](DOTA)-NH2 (disulfide 4-10; also: 177Lu in the DOTA chelator, also called [177Lu]Lu-test peptide) [[177Lu]Lu-labelled Cpd No. 237]
% Binding [6]: ≤ 25%

Ac-WTICNN[2Nal]HNCWP[dK](DOTA)-NH2 (disulfide 4-10; also: 177Lu chelated in DOTA, also called [177Lu]Lu-test peptide) [[177Lu]Lu-labelled Cpd No. 211]
% Binding [6]: ≤ 25%

Ac-WTICNN[2Nal]HDCWP[dK](DOTA)-NH2 (bridge 4-10; also: 177Lu chelated in DOTA, also called [177Lu]Lu-test peptide) [[177Lu]Lu-labelled Cpd No. 165]
% Binding [5]: ≤ 25%

Ac-WTICN[4Pal][2Nal]HDCWP[dK](DOTA)-NH2 (disulfide 4-10; also: 177Lu in the DOTA chelator, also called [177Lu]Lu-test peptide) [[177Lu]Lu-labelled Cpd No. 266]
% Binding [6]: ≤ 25%

Ac-WTICNNWHDCWP[dK](DOTA)-NH2 (disulfide 4-10; also: 177Lu chelated in DOTA, also called [177Lu]Lu-test peptide) [[177Lu]Lu-labelled Cpd No. 23]
% Binding [5]: ≤ 25% | % Binding [6]: ≤ 25%

Ac-[Trp(5-F)]T[Nva(3-Et)]CNN[Phe(4-CF3)]HDC[Trp(7-aza)][Pro(trans-4-F)][dK](DOTA)-NH2 (disulfide 4-10; also: 177Lu complexed in the DOTA chelator) [[177Lu]Lu-labelled Cpd No. 146]
% Binding [5]: < 25%
